Measured values from the supplement of paper PMC10307832.

Tests used:
Assay in all cases: relative viability (nuclei count vs DMSO), 5 days (fraction); higher = more cells survive
Bortezomib + Lapatinib = compound: CC(C)C[C@H](NC(=O)[C@H](Cc1ccccc1)NC(=O)c1cnccn1)B(O)O [Bortezomib] + CS(=O)(=O)CCNCc1ccc(-c2ccc3ncnc(Nc4ccc(OCc5cccc(F)c5)c(Cl)c4)c3c2)o1 [Lapatinib] (partner 2 µM)
Summary of the method: (§1)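 Five library-drug doses in √10 steps were combined with a fixed anchor-drug dose, or a single drug was given alone, by pin tool to lung cancer cell lines in 1536-well plates the day after seeding. Nuclei were stained and counted after 5 days. Relative viability is the nuclei count in treated wells over that in vehicle wells, taken as the median of duplicate plates.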

Bortezomib + Alpelisib = compound: CC(C)C[C@H](NC(=O)[C@H](Cc1ccccc1)NC(=O)c1cnccn1)B(O)O [Bortezomib] + Cc1nc(NC(=O)N2CCC[C@H]2C(N)=O)sc1-c1ccnc(C(C)(C)C(F)(F)F)c1 [Alpelisib] (partner 2 µM)
Summary of the method: as §1

Obatoclax + Alpelisib = compound: COC1=CC(c2cc3ccccc3[nH]2)=N/C1=C\c1[nH]c(C)cc1C [Obatoclax] + Cc1nc(NC(=O)N2CCC[C@H]2C(N)=O)sc1-c1ccnc(C(C)(C)C(F)(F)F)c1 [Alpelisib] (partner 2 µM)
Summary of the method: as §1

Obatoclax + Dasatinib = compound: COC1=CC(c2cc3ccccc3[nH]2)=N/C1=C\c1[nH]c(C)cc1C [Obatoclax] + Cc1nc(Nc2ncc(C(=O)Nc3c(C)cccc3Cl)s2)cc(N2CCN(CCO)CC2)n1 [Dasatinib] (partner 0.075 µM)
Summary of the method: as §1

Cell Line | relative viability (Bortezomib + Lapatinib; first compound 0.0002 µM) | relative viability (Bortezomib + Lapatinib; first compound 0.000632 µM) | relative viability (Bortezomib + Lapatinib; first compound 0.002 µM) | relative viability (Bortezomib + Lapatinib; first compound 0.006325 µM) | relative viability (Bortezomib + Lapatinib; first compound 0.02 µM) | relative viability (Bortezomib + Alpelisib; first compound 0.0002 µM) | relative viability (Bortezomib + Alpelisib; first compound 0.000632 µM) | relative viability (Bortezomib + Alpelisib; first compound 0.002 µM) | relative viability (Bortezomib + Alpelisib; first compound 0.006325 µM) | relative viability (Bortezomib + Alpelisib; first compound 0.02 µM) | relative viability (Obatoclax + Alpelisib; first compound 0.01 µM) | relative viability (Obatoclax + Alpelisib; first compound 0.03162 µM) | relative viability (Obatoclax + Alpelisib; first compound 0.1 µM) | relative viability (Obatoclax + Alpelisib; first compound 0.3162 µM) | relative viability (Obatoclax + Alpelisib; first compound 1 µM) | relative viability (Obatoclax + Dasatinib; first compound 0.01 µM) | relative viability (Obatoclax + Dasatinib; first compound 0.03162 µM) | relative viability (Obatoclax + Dasatinib; first compound 0.1 µM) | relative viability (Obatoclax + Dasatinib; first compound 0.3162 µM) | relative viability (Obatoclax + Dasatinib; first compound 1 µM)
NCI-H596 | 0.947 | 1 | 0.99 | 0.245 | 0.264 | 0.541 | 0.431 | 0.42 | 0.174 | 0.128 | 0.481 | 0.437 | 0.469 | 0.402 | 0.401 | 0.618 | 0.475 | 0.464 | 0.502 | 0.394
HARA | 0.647 | 0.527 | 0.73 | 0.0694 | 0.0797 | 0.808 | 0.673 | 0.949 | 0.0583 | 0.0865 | 0.942 | 0.529 | 0.916 | 0.802 | 0.78 | 0.226 | 0.233 | 0.335 | 0.358 | 0.255
NCI-H1793 | 0.683 | 0.624 | 0.868 | 0.466 | 0.154 | 0.668 | 0.589 | 0.776 | 0.475 | 0.127 | 0.702 | 0.629 | 0.885 | 0.678 | 0.795 | 0.404 | 0.405 | 0.321 | 0.395 | 0.418
NCI-H2126 | 0.762 | 0.757 | 0.762 | 0.727 | 0.595 | 0.765 | 0.758 | 0.741 | 0.737 | 0.206 | 0.779 | 0.752 | 0.743 | 0.769 | 0.714 | 0.675 | 0.538 | 0.524 | 0.613 | 0.536
HCC-827 | 0.217 | 0.183 | 0.187 | 0.222 | 0.15 | 1.12 | 0.948 | 0.8 | 0.149 | 0.126 | 0.949 | 0.931 | 0.957 | 0.984 | 0.964 | 0.451 | 0.292 | 0.417 | 0.407 | 0.388
ABC-1 | 0.941 | 1.06 | 0.605 | 0.606 | 0.495 | 1 | 1.08 | 0.372 | 0.233 | 0.245 | 1.04 | 1.18 | 1.09 | 1.19 | 0.573 | 0.498 | 0.55 | 0.369 | 0.551 | 0.375
BEN | 0.72 | 0.74 | 0.61 | 0.339 | 0.114 | 0.925 | 1.09 | 0.72 | 0.614 | 0.154 | 0.963 | 1 | 0.904 | 1.16 | 0.911 | 0.321 | 0.312 | – | 0.41 | 0.272
NCI-H23 | – | 0.866 | 1.06 | 0.156 | 0.135 | – | 0.72 | 0.829 | 0.116 | 0.109 | 0.667 | 0.607 | 0.691 | 0.604 | 0.569 | 0.826 | 0.838 | 0.825 | 0.757 | 0.306
